Results: patent publication US20230101963A1, “TREATMENT OF MEDICAL INDICATION” (VALLAURIX TRADING SARL MC, priority 2020, published 2023)

Legend:
hMC2R = hMC2R (Homo sapiens, UniProt Q01718); experiment: agonist activity on hMC2R; assay type: biochemical; details: versus selective agonist affinity for hMC1R and hMC4R
[1] = in vivo
Excerpt: For the purpose of the invention, the BBB permeability refers to the ability of a compound to cross the Blood-Brain-Barrier (BBB) that is intact, i.e. not leaking or otherwise compromised. Permeability can be determined based on presence of central effects (or side-effects). A compound with BBB permeability can show central effects or side-effects.
BBB permeable is the ability of a compound to pass the BBB that is intact and for instance not leaking or otherwise compromised. Permeability can be determined based on presence of central effects (or side-effects) after peripheral administration of the compound.

Sequence of hMC2R (Q01718 whole entry): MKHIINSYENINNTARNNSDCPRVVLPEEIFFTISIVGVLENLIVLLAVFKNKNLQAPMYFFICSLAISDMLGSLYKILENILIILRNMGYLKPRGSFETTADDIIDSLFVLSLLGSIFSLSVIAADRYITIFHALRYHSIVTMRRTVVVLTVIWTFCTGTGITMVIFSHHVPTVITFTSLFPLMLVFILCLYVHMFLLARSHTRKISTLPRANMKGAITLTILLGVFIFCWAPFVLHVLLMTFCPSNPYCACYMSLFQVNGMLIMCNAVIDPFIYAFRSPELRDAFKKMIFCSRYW
Sequence of hMC2R (Q8TCY5 whole entry partner): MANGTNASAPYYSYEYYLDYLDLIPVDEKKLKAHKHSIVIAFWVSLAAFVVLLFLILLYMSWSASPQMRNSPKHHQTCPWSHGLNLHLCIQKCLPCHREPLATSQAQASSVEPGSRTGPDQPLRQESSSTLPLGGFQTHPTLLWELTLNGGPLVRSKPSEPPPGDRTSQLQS

In the case of `CCCC[C@H](NC(C)=O)C(=O)N[C@H]1CC(=O)NCCCC[C@@H](C(=O)O)NC(=O)[C@H](Cc2c[nH]c3ccccc23)NC(=O)[C@H](CCCN=C(N)N)NC(=O)[C@@H](Cc2ccccc2)NC(=O)[C@H](Cc2cnc[nH]2)NC1=O` [bremelanotide, Ac-Nle-cyclo-(Asp-His-D-Phe-Arg-Trp-Lys-OH)], the “activity on hMC2R” value (hMC2R) is reported as “none” and the “central activity in human, indicating passage of the human blood-brain-barrier” value [1] is reported as “show central activity in human”.
